Source: patent publication US20070117794A1, “Methods of treatment using oxytocin receptor agonists” (Wyeth, priority 2005, published 2007)
“Also recorded” adds a separate entry of the source.

Columns and labels:
[1] = tested on: Male Sprague-Dawley derived Rats; assay: Prepulse inhibition of the acoustic startle reflex (PPI), d-Amphetamine disrupted; assay type: in vivo, rat; settings: for reversal of d-amphetamine induced disruption of PPI: i.p., 30 mins prior to test, hydrochloride
Description: (§1) Prepulse inhibition of the acoustic startle reflex (PPI) is an operational measure of sensorimotor gating that can be measured across many species. Deficits in PPI have been reported in patients with schizophrenia, leading to its use as a preclinical model of the disease. In rats, PPI is decreased in a manner homologous to that seen in schizophrenia following administration of certain psychotomimetic drugs (e.g. MK801; amphetamine). In our study we utilized MK801, a non-competitive NMDA antagonist and d-Amphetamine, a non-selective dopamine agonist.
(§2) Animals: Male Sprague-Dawley derived Rats (SD) weighing 200-250 g were group housed in standard bedding cages, allowed access to food and water ad libitum, and maintained on a 12-hour light dark cycle. All behavioral testing was performed during the light cycle. All studies were previously approved by the Institutional Animal Care and Use Committee, and performed in accordance to the Guide for the Care and Use of Laboratory Animals as adopted and promulgated by the National Institutes of Health.
(§3) Test Compounds: The oxytocin agonist cpd A was dissolved in a 1% Tween-80/1% DMSO/saline vehicle. MK801 (Sigma, St. Louis, Mo.) was dissolved in 2% Tween-80/saline. d-Amphetamine (Sigma, St. Louis, Mo.) was dissolved in saline.
(§4) Each testing chamber (SR-LAB system, San Diego Instruments) consisted of a Plexiglas cylinder (8.8 cm in diameter) mounted on a frame and held in position by four metal pins to a base unit. Movement of the rat within the cylinder was detected by a piezoelectric accelerometer attached below the frame. […] Presentation of acoustic pulse and prepulse stimuli were controlled by the SR-LAB software and interface system, which also digitized, rectified and recorded the responses from the accelerometer. Mean startle amplitude was determined by averaging 100, 1 ms readings taken from the beginning of the pulse stimulus onset. For calibration purposes, sound levels were measured with a Quest sound level meter, scale “A”, with the microphone placed inside the Plexiglas cylinder. […]

[2] = biological target: T1, OTR (Homo sapiens, UniProt P30559); settings: cited from earlier work
T1 sequence (P30559 1-389): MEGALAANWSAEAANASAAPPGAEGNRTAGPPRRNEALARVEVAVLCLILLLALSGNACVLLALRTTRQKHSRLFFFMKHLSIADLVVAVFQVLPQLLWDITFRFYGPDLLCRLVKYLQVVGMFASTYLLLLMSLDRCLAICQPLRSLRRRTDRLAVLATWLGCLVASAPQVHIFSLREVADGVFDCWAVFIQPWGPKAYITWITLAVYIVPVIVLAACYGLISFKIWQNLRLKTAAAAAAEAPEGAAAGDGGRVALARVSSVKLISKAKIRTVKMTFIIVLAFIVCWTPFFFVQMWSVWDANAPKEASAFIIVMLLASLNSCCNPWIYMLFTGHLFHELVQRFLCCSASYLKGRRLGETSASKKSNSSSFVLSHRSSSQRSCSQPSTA

[3] = tested on: rats; settings: cited from earlier work
[4] = tested on: mouse; settings: OT 3 mg/kg, i.p.; cited from earlier work
[5] = tested on: male rats; settings: OT 1-4 ug/kg, s.c.; cited from earlier work
[6] = tested on: Male Swiss-Webster mice; assay: Four-Plate Test (FPT), punished crossings; assay type: in vivo, mouse; settings: for reversal of the anxiolytic-like effect of cpd A / blockade of the anxiolytic-like effect of cpd A (in words): co-administered with cpd A 10 mg/kg; for blockade of the anxiolytic-like effect of cpd A (in words): cpd B 10-30 mg/kg
Method: as §2, with “Swiss-Webster mice” for “Sprague-Dawley derived Rats (SD)”, “18-24” for “200-250”, “were” for “were group”, “groups of 15 in hanging wire” for “standard bedding”
Test Compounds: Oxytocin (American Peptide Company, Sunnyvale, Calif.) was dissolved in a saline vehicle. The oxytocin agonist 4,-(3,5-Dihydroxy-benzyl)-piperazine-1-carboxylic acid 2-methyl-4-(3-methyl-4,10-dihydro-3H-2,3,4,9-tetra-aza-benzo[f]azulene-9-carbonyl)-benzylamide (hereinafter “cpd A”) and oxytocin antagonist 10-[(2-Methyl-2′-trifluoromethyl-[1,1′-biphenyl]-4-yl)carbonyl]-10,11-dihydro-5H-pyrrolo[2,1-c][1,4]benzodiazepine-3-carboxylic acid-bis-(2-hydroxy-ethyl)-amide (hereinafter “cpd B”) (Patent W/O 02/083680) were prepared and dissolved in a 1% Tween-80/1% DMSO/saline vehicle.
ICV injections: Mice were lightly anesthetized with halothane. Oxytocin was administered into either the left or right ventricle by visual location. A 26 gauge Hamilton syringe with 3 mm needle was used for injections and the injection site was visualized by locating the middle of the invisible line that runs diagonally from the left eye to the right ear. Test compounds were injected in a 2 μl total volume.
Four-Plate Test (FPT:) The four-plate apparatus consists of a Plexiglas chamber (18×25×16 cm) floored with four identical rectangular metal plates (8×11 cm), which are separated from one another by a gap of 4 mm and connected to a computerized device that can deliver electric shocks (0.8 mA, 0.5 sec) (Aron et al. Evaluation of a rapid technique for detecting minor tranquilizers, Neuropharmacology 10: 459-69 (1971)). In this test, mice are placed into the chamber and following a brief (18 seconds) habituation period, the animal's innate motivation to explore the novel environment is suppressed by the delivery of a mild foot shock every time the animal crosses any of the boundaries (gaps) while moving from one plate to another (referred to as a ‘punished crossing’). Following any punished crossing, there is a 3-second time out where the mouse may cross the electric plates without receiving another shock. An experimenter blind to the dosing conditions administers shocks, and a computer records the total number of punished crossings an animal makes during a 1-minute testing period. […] Pharmacol Biochem Behav 65: 339-44 (2000)). In all experiments, the testing procedure consisted of either a single injection or two injections followed by a test session 30 minutes later.
Statistical Analysis: One-way analysis of variance (ANOVA) was performed to determine effects of test compound treatments, followed by Least Significant Difference Tests for a post hoc analysis. All figures are shown with average ±SEM.

[7] = tested on: rat; settings: subcutaneous oxytocin; deficit induced by dizocilpine and amphetamine; cited from earlier work
[8] = tested on: Male Sprague-Dawley derived Rats; assay: Prepulse inhibition of the acoustic startle reflex (PPI), MK801 disrupted; assay type: in vivo, rat
Description: as §1, §2, §3, §4
Startle amplitude was defined as the mean value of pulse alone trials. To evaluate the effect of drug treatment on startle response, data from the pulse alone trials was analyzed using one-factor ANOVA with repeated measures (one-way randomized block design), followed by a least significant difference (LSD) post-hoc test (comparison was made to vehicle/disrupting agent control). […] Although data for gating at three different prepulse intensities was generated, an averaged gating score across all prepulse intensities was calculated and this was analyzed by one factor ANOVA with repeated measures (one-way randomized block design). […]

Structure (SMILES): C[C@H](N)Cc1ccccc1 [d-Amphetamine]
- disruption of PPI ([1]; d-Amphetamine 4 mg/kg s.c., 10 min prior to test, 5 dB, 10 dB & 15 dB prepulse): produced significant disruption across all three prepulse intensities

Structure (SMILES): CC[C@H](C)[C@@H]1NC(=O)[C@H](Cc2ccc(O)cc2)NC(=O)[C@@H](N)CSSC[C@@H](C(=O)N2CCC[C@H]2C(=O)N[C@@H](CC(C)C)C(=O)NCC(N)=O)NC(=O)[C@H](CC(N)=O)NC(=O)[C@H](CCC(N)=O)NC1=O [Oxytocin]
- selectivity for OT compared to AVP at the OTR [2]: 10 fold
- open arm entries and time spent in the open arms of the elevated plus-maze ([3]; OT 10-100 ng, i.c.v.): increases in open arm entries and time spent in the open arms
- activity in the elevated-plus maze ([3]; pregnant or lactating rats, but not virgin rats): Anxiolytic activity
- activity in elevated-plus maze [4]: anxiolytic-like activity
- peripheral locomotor activity in the Open-Field model [5]: decrease in peripheral locomotor activity
- increase in punished crossings from vehicle ([6]; oxytocin 3 μg, icv, 30 minutes prior to testing, p<0.05): 30%
- increase in punished crossings from vehicle ([6]; oxytocin 10 μg, icv, 30 minutes prior to testing, p<0.05): 51%
- punished crossings (effect in words) ([6]; oxytocin 1-10 μg icv (b94 prints 1-10 mg), 30 minutes prior to testing): dose-dependent increase in punished crossings
- restoration of prepulse inhibition [7]: dose-dependently restore prepulse inhibition
- reversal of MK801 induced deficits in PPI ([8]; oxytocin 0.04-1 mg/kg s.c., data not shown): reversed the MK801 induced deficits in PPI in rats in a dose dependent manner

Structure (SMILES): Cc1cc(C(=O)N2Cc3cnn(C)c3Nc3ccccc32)ccc1CNC(=O)N1CCN(Cc2cc(O)cc(O)c2)CC1 [cpd A, 4,-(3,5-Dihydroxy-benzyl)-piperazine-1-carboxylic acid 2-methyl-4-(3-methyl-4,10-dihydro-3H-2,3,4,9-tetra-aza-benzo[f]azulene-9-carbonyl)-benzylamide]
- increase in punished crossings from vehicle ([6]; cpd A 10 mg/kg, ip, 30 minutes prior to testing, p<0.05): 32%
- punished crossings (effect in words) ([6]; cpd A 10 mg/kg, ip, antagonist study (FIG. 3), p<0.05, 10 mg/kg): increases punished crossings; also recorded: increased punished crossings compared to vehicle
- increase in punished crossings from vehicle ([6]; cpd A 30 mg/kg, ip, 30 minutes prior to testing, p<0.05): 25%
- punished crossings (effect in words) ([6]; cpd A 3-100 mg/kg, ip, 30 minutes prior to testing): increases the number of punished crossings; also recorded: significant overall effect on punished crossings
- reversal of MK801 induced deficits in PPI ([8]; Cpd A 30 mg/kg i.p. (highest dose of 3-30 mg/kg), 30 mins prior to test): reversed MK801 induced deficits in PPI at 10 dB & 15 dB levels; also recorded: reversed MK801 induced disruption at 10 dB and 15 dB

Structure (SMILES): Cc1cc(C(=O)N2Cc3cnn(C)c3Nc3ccccc32)ccc1CNC(=O)N1CCN(Cc2cc(O)cc(O)c2)CC1.Cl [Cpd A (HCl salt), 4,-(3,5-Dihydroxy-benzyl)-piperazine-1-carboxylic acid 2-methyl-4-(3-methyl-4,10-dihydro-3H -2,3,4,9-tetra-aza-benzo[f]azulene-9-carbonyl)-benzylamide hydrochloride]
- reversal of d-amphetamine induced disruption of PPI ([1]; Cpd A (HCl salt) 10 mg/kg, 10 mg/kg): reversed d-amphetamine induced disruption at 5 dB and 10 dB; also recorded: reversed d-amphetamine—induced deficit at 5 dB and 10 dB
- reversal of d-amphetamine induced disruption of PPI ([1]; Cpd A (HCl salt) 30 mg/kg, 30 mg/kg): reversed the d-amphetamine induced disruption at 10 dB

Structure (SMILES): Cc1cc(C(=O)N2Cc3ccc(C(=O)N(CCO)CCO)n3Cc3ccccc32)ccc1-c1ccccc1C(F)(F)F [cpd B, 10-[(2-Methyl-2′-trifluoromethyl-[1,1′-biphenyl]-4-yl)carbonyl]-10,11-dihydro-5H-pyrrolo[2,1-c][1,4]benzodiazepine-3-carboxylic acid-bis-(2-hydroxy-ethyl)-amide]
- reversal of the anxiolytic-like effect of cpd A ([6]; cpd B 10 mg/kg, ip): 63%
- reversal of the anxiolytic-like effect of cpd A ([6]; cpd B 30 mg/kg, ip, p<0.05): 100%
- blockade of the anxiolytic-like effect of cpd A (in words) ([6]; ip): blocked the anxiolytic-like effect of cpd A in a dose-dependent manner
- blockade of the anxiolytic-like effect of cpd A (in words) ([6]; ip, listed as Cpd B): dose-dependently blocks the anxiolytic-like effect of Cpd A
- punished crossings (effect in words) ([6]; cpd B administered alone): no effect on punished crossings

Structure (SMILES): C[C@]12N[C@H](Cc3ccccc31)c1ccccc12 [MK801]
- disruption of PPI ([8]; MK801 0.1 mg/kg s.c., 10 min prior to test, 5 dB, 10 dB & 15 dB prepulse, 0.1 mg/kg): produced significant disruption in PPI across three prepulse intensities; also recorded: produced significant disruption across all three prepulse intensities
- startle alone ([8]; MK801 0.1 mg/kg s.c., 10 min prior to test, p >0.05): no effect on startle alone
